Measured values published in publication PMC12138102 (Acta Pharmaceutica Sinica. B, 2025).

Assays:
[1] = target: eeAChE (Electrophorus electricus, UniProt O42275); test: AChE inhibition, Ellman's assay; assay type: biochemical
[2] = target: eqBuChE (Equus caballus, UniProt P81908); test: BuChE inhibition, Ellman's assay; assay type: biochemical, equine; conditions: for IC50: IC50 ± SD eqBuChE; for SI: Selectivity Index, eeAChE and eqBuChE
[3] = target: huBuChE (Homo sapiens, UniProt P06276); test: BuChE inhibition, Ellman's assay; assay type: biochemical; conditions: for SI: Selectivity Index, huAChE and huBuChE
Sequence of huBuChE (P06276 29-602): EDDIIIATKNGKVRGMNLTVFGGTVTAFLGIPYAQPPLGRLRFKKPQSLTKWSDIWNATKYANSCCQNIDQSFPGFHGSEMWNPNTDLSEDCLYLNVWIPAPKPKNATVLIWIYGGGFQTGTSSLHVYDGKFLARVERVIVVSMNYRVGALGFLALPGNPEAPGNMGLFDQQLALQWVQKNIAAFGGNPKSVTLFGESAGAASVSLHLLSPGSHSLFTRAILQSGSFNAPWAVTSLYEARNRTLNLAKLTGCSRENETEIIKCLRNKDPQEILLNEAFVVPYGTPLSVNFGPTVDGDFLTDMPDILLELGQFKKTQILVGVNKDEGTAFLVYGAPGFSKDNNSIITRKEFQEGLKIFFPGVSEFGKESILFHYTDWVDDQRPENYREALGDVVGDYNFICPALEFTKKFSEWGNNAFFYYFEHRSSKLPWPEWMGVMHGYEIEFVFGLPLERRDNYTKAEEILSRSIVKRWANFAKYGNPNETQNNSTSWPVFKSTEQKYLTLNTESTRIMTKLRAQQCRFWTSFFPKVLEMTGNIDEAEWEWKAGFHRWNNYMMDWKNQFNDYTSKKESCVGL

[4] = target: huAChE (Homo sapiens, UniProt P22303); test: AChE inhibition, Ellman's assay; assay type: biochemical
Sequence of huAChE (P22303 32-617 isoform P22303-2 limits assumed): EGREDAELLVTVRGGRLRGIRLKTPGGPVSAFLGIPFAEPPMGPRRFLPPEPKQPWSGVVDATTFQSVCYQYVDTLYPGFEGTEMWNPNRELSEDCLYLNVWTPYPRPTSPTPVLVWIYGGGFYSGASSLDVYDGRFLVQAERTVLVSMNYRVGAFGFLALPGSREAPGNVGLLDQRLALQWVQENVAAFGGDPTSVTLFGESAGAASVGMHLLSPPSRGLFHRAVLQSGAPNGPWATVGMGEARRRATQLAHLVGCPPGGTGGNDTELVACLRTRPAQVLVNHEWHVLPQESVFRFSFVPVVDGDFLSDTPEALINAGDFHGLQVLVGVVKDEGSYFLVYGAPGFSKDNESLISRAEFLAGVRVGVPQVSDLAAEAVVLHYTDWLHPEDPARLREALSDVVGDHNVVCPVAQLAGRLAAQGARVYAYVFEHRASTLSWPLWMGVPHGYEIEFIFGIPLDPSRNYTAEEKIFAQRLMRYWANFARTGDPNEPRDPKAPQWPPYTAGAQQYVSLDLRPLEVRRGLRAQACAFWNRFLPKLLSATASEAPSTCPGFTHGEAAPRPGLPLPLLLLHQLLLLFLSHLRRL

[5] = system: BuChE; test: Reversibility of BuChE inhibition; assay type: biochemical; conditions: 0.1 × IC50, 120 min
[6] = system: APP/PS1 double-transgenic mice; test: APP/PS1 mice, Morris Water Maze and tissue analyses; assay type: in vivo
[7] = system: scopolamine-induced mice; test: Scopolamine-induced mice dysmnesia, step-down passive avoidance task; assay type: in vivo, Kunming mice
[8] = system: AlCl3-induced zebrafish AD model; test: AlCl3-induced zebrafish AD model; assay type: in vivo; conditions: donepezil 3.0 μg/mL
[9] = plasma, donepezil 2.0 mg/kg, 8e 2.6 mg/kg

Sequence of eeAChE (O42275 24-633): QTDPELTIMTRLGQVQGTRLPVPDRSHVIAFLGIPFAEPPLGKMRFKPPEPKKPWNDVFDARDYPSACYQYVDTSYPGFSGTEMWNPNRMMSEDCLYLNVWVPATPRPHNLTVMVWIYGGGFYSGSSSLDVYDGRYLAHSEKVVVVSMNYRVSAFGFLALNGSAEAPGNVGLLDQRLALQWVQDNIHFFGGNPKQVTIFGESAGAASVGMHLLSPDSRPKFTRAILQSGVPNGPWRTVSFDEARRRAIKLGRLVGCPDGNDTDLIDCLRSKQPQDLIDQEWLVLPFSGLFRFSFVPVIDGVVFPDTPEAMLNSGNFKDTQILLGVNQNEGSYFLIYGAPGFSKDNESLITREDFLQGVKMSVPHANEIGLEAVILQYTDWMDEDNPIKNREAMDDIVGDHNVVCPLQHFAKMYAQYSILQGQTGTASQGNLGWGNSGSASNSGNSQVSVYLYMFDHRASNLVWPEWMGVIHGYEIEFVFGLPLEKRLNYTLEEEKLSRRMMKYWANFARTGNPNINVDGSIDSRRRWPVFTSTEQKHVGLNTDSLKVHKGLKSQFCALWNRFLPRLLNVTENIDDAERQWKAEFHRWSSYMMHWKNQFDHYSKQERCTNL
Sequence of eqBuChE (P81908 whole entry): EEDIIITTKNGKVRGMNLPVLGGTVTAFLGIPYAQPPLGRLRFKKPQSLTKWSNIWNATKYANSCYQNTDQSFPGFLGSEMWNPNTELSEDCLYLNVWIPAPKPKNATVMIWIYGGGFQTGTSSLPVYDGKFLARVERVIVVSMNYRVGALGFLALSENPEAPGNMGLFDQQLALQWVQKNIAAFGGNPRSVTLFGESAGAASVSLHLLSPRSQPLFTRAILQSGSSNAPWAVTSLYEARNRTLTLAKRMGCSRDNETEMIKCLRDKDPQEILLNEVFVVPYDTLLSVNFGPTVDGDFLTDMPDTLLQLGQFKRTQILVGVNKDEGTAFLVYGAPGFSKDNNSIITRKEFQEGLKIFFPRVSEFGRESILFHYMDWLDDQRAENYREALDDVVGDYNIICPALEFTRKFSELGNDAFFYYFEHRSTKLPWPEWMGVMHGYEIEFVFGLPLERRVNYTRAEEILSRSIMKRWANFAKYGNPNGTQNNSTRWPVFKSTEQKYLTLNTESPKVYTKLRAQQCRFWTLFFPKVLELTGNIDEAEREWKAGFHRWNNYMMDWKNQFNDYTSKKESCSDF

Row | Compound | IC50 [1] | IC50 [2] | SI [2] | other results
1 | COc1cc(CCC(=O)N2CCC(Cc3ccccc3)CC2)ccc1OC(=O)CCCCN1CCC(Cc2ccccc2)CC1 [9a] | 7.1 ± 0.15 µM | 0.82 ± 0.03 µM | 8.7 | 
2 | COc1cc(C(=O)N2CCC(Cc3ccccc3)CC2)ccc1OCCCCN1CCc2ccccc2C1 [7d] | 3.1 ± 0.15 µM | 0.85 ± 0.02 µM | 3.6 | 
3 | COc1cc(CCC(=O)N2CCC(Cc3ccccc3)CC2)ccc1OCCCCN1CCC(c2ccccc2)CC1 [8h] | 4.7 ± 0.28 µM | 0.13 ± 0.08 µM | 36 | IC50 [3]: 0.19 ± 0.19 µM; SI [3]: 36; IC50 [4]: 6.9 ± 0.14 µM
4 | CCN(CCCCCCCCCOc1ccc(CCC(=O)N2CCC(Cc3ccccc3)CC2)cc1OC)Cc1ccccc1 [10e] | 8.4 ± 0.53 µM | 0.28 ± 0.02 µM | 30 | 
5 | COc1cc(CCC(=O)N2CCC(Cc3ccccc3)CC2)ccc1OCCCCN1CCN(Cc2ccccc2)CC1 [8b] | 5.8 ± 0.35 µM | 3.3 ± 0.13 µM | 1.8 | 
6 | CCN(CCCCOc1c(OC)cc(C(=O)N2CCN(c3ccc(F)cc3)CC2)cc1OC)Cc1ccccc1 [7j] | 6.9 ± 0.04 µM | 6.3 ± 0.32 µM | 1.1 | 
7 | CCN(CCCCCCOc1ccc(CCC(=O)N2CCC(Cc3ccccc3)CC2)cc1OC)Cc1ccccc1 [10d] | 4.6 ± 0.03 µM | 0.12 ± 0.003 µM | 38 | 
8 | CCN(CCCCOc1ccc(C(=O)N2CCC(Cc3ccccc3)CC2)cc1OC)Cc1ccccc1 [7e] | 2.8 ± 0.13 µM | 0.47 ± 0.05 µM | 6.0 | IC50 [3]: 0.87 ± 0.23 µM; SI [3]: 4.5; IC50 [4]: 3.9 ± 0.44 µM
9 | COc1cc(C(=O)N2CCC(Cc3ccccc3)CC2)ccc1OCCCCN1CC(C)CC(C)C1 (stereo not shown) [7g] | 2.3 ± 0.12 µM | 3.7 ± 0.24 µM | 0.6 | 
10 | CCN(C)C(=O)Oc1cccc([C@H](C)N(C)C)c1 [Rivastigmine] |  |  |  | recovery of BuChE activity / reversibility [5]: remained relatively unchanged
11 | CCN(CCCCCCCCCCOc1ccc(CCC(=O)N2CCC(Cc3ccccc3)CC2)cc1OC)Cc1ccccc1 [10f] | 4.7 ± 0.28 µM | 0.59 ± 0.08 µM | 8.0 | 
12 | COc1cc(CCC(=O)N2CCC(Cc3ccccc3)CC2)ccc1OCCCCN1CCC(c2noc3ccccc23)CC1 [8k] | 5.5 ± 0.23 µM | 0.25 ± 0.02 µM | 22 | 
13 | COc1cc(CCC(=O)N2CCC(Cc3ccccc3)CC2)ccc1OCCCCN1CCC(CCCc2ccccc2)CC1 [8c] | 4.2 ± 0.26 µM | 0.063 ± 0.005 µM | 67 | IC50 [3]: 0.082 ± 0.007 µM; SI [3]: 82; IC50 [4]: 6.7 ± 0.16 µM
14 | COc1cc(C(=O)N2CCC(Cc3ccccc3)CC2)ccc1OCCCCN1CCN(Cc2ccccc2)CC1 [7b] | 7.9 ± 0.25 µM | 3.1 ± 0.12 µM | 2.5 | 
15 | CCN(CCCCOc1c(OC)cc(C(=O)NC2CCN(Cc3ccccc3)CC2)cc1OC)Cc1ccccc1 [7i] | 5.7 ± 0.03 µM | 2.6 ± 0.12 µM | 2.2 | 
16 | CCN(CCOc1ccc(CCC(=O)N2CCC(Cc3ccccc3)CC2)cc1OC)Cc1ccccc1 [10a] | 3.6 ± 0.02 µM | 0.22 ± 0.03 µM | 16 | 
17 | COc1cc(CCC(=O)N2CCC(Cc3ccccc3)CC2)ccc1OCCCCN1CCC(Cc2ccccc2)CC1 [8a] | 1.7 ± 0.01 µM | 0.093 ± 0.005 µM | 18 | IC50 [3]: 0.16 ± 0.43 µM; SI [3]: 37; IC50 [4]: 5.9 ± 0.26 µM
18 | CCN(CC)CCCCOc1ccc(C(=O)N2CCC(Cc3ccccc3)CC2)cc1OC [7f] | 8.6 ± 0.32 µM | 6.4 ± 0.24 µM | 1.3 | 
19 | CCN(CCCOc1ccc(CCC(=O)N2CCC(Cc3ccccc3)CC2)cc1OC)Cc1ccccc1 [10b] | 8.7 ± 0.01 µM | 0.068 ± 0.005 µM | 128 | IC50 [3]: 0.091 ± 0.008 µM; SI [3]: 65; IC50 [4]: 5.9 ± 0.26 µM
20 | COc1cc2c(cc1OC)C(=O)C(CC1CCN(Cc3ccccc3)CC1)C2 (stereo not shown) [Donepezil] |  |  |  | ACh levels ([6]; ELISA, cerebral cortex): remarkable increase; Aβ1–42 levels ([6]; ELISA, cerebral cortex): significantly reduced; IL-1β levels ([6]; ELISA, cerebral cortex): significantly reduced; IL-6 levels ([6]; ELISA, cerebral cortex): significantly reduced; TNF-α levels ([6]; ELISA, cerebral cortex): significantly reduced; neuronal abnormalities within cerebral cortex and hippocampus ([6]; HE staining, donepezil 2 mg/kg, 8e 2.6 mg/kg): marked decrease; escape latency ([6]; MWM, vs model group): significantly decreased; Aβ1–42 levels ([6]; immunofluorescence staining, cerebral cortex, donepezil 2.0 mg/kg, 8e 2.6 mg/kg): significant reduction; TG levels ([6]; plasma): significant decrease; LDL-c levels [6, 9]: significantly reduced; TC levels [6, 9]: significantly reduced; latency time ([7]; 5.0 mg/kg): 163.87 s; number of errors ([7]; 5.0 mg/kg): 0.1; neuronal apoptosis in the hippocampus ([7]; TUNEL staining, donepezil 5.0 mg/kg, 8e 6.5 mg/kg): significantly reduced; levels of IL-1β, IL-6, and TNF-α in the cerebral cortex ([7]; immunohistochemistry, donepezil 5.0 mg/kg, 8e 6.5 mg/kg): significant reduction; number of apoptotic cells ([8]; HE staining, 8e 0.1, 0.25, and 0.5 μg/mL): significantly reduced; swimming distance/swimming speed ([8]; 8e 0.1 and 0.25 μg/mL): significantly increased; reaction capacity ([8]; 8e 0.1 and 0.25 μg/mL, transition from dark to light): significantly enhanced
21 | CCN(CC)CCCCOc1ccc(CCC(=O)N2CCC(Cc3ccccc3)CC2)cc1OC [8f] | 8.4 ± 0.53 µM | 0.28 ± 0.02 µM | 30 | 
22 | COc1cc(C(=O)N2CCC(Cc3ccccc3)CC2)ccc1OCCCCN1CCC(CCCc2ccccc2)CC1 [7c] | 3.4 ± 0.13 µM | 1.1 ± 0.06 µM | 3.1 | 
23 | COc1cc(CCC(=O)N2CCC(Cc3ccccc3)CC2)ccc1OCCCCN1CCC(C(=O)c2ccc(F)cc2)CC1 [8j] | 4.9 ± 0.18 µM | 0.31 ± 0.12 µM | 16 | 
24 | CCN(CCCCCOc1ccc(CCC(=O)N2CCC(Cc3ccccc3)CC2)cc1OC)Cc1ccccc1 [10c] | 6.2 ± 0.12 µM | 0.077 ± 0.002 µM | 81 | IC50 [3]: 0.11 µM; SI [3]: 78; IC50 [4]: 8.6 ± 0.33 µM
25 | COc1cc(CCC(=O)N2CCC(Cc3ccccc3)CC2)ccc1OCCCCN1CC(C)CC(C)C1 (stereo not shown) [8g] | 6.5 ± 0.33 µM | 0.75 ± 0.02 µM | 8.7 | 
26 | COc1cc(CCC(=O)N2CCC(Cc3ccccc3)CC2)ccc1OC(=O)CCCCN1CCC(CCCc2ccccc2)CC1 [9c] | 8.1 ± 0.43 µM | 0.73 ± 0.23 µM | 11 | 
27 | COc1cc(CCC(=O)N2CCC(Cc3ccccc3)CC2)ccc1OCCCCN1CCc2ccccc2C1 [8d] | 6.2 ± 0.12 µM | 0.087 ± 0.002 µM | 71 | IC50 [3]: 0.097 µM; SI [3]: 89; IC50 [4]: 8.6 ± 0.33 µM
28 | COc1cc(CCC(=O)N2CCC(Cc3ccccc3)CC2)ccc1OC(=O)CCCCN1CCN(Cc2ccccc2)CC1 [9b] | 1.9 ± 0.11 µM | 1.7 ± 0.06 µM | 1.1 | 
29 | COc1cc(C(=O)N2CCC(Cc3ccccc3)CC2)ccc1OCCCCN1CCC(Cc2ccccc2)CC1 [7a] | 5.9 ± 0.36 µM | 0.66 ± 0.03 µM | 8.9 | 
